Measurements published in ChEMBL document CHEMBL1201862, “PubChem BioAssay data set” (2004).
The source made the active and inactive calls.

Experiments:
[1] = biological target: Intestinal-type alkaline phosphatase (Mus musculus, UniProt P24822); assay: PubChem AID 488874; assay type: functional
[2] = biological target: T1, Intestinal-type alkaline phosphatase (Homo sapiens, UniProt P09923); assay: human intestinal alkaline phosphatase activators, dose response, biochemical, luminescence, uHTS hits (AID 463120); assay type: functional
T1 sequence (P09923 whole entry): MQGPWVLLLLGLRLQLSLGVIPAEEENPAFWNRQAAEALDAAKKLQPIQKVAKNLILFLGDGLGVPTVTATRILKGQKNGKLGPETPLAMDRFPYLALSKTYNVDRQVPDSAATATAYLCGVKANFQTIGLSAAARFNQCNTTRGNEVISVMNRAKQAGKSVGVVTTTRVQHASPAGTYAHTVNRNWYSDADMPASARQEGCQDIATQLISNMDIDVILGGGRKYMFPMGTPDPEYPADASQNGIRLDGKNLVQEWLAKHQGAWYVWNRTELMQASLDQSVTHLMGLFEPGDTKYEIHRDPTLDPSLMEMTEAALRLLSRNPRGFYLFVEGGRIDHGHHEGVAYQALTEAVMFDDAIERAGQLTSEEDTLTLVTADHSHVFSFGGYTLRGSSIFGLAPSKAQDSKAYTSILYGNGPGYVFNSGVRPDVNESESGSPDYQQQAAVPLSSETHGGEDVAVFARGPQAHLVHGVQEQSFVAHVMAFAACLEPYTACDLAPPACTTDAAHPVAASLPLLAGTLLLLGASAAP

[3] = biological target: T1, Intestinal-type alkaline phosphatase; assay: human IAP activators, dose response, biochemical, luminescent, uHTS hits, set 2 (AID 488817); assay type: functional;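 note: potency of activators that raise enzyme activity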
[4] = biological target: T2, Alkaline phosphatase, tissue-nonspecific isozyme (Homo sapiens, UniProt P05186); assay: TNAP enzyme activators, dose response, selectivity assay for human IAP activator project, biochemical, TNAP isozyme, human IAP uHTS hits (AID 488886); assay type: functional;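 note: potency of compounds raising TNAP activity as a selectivity check on IAP activators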
T2 sequence (P05186 whole entry): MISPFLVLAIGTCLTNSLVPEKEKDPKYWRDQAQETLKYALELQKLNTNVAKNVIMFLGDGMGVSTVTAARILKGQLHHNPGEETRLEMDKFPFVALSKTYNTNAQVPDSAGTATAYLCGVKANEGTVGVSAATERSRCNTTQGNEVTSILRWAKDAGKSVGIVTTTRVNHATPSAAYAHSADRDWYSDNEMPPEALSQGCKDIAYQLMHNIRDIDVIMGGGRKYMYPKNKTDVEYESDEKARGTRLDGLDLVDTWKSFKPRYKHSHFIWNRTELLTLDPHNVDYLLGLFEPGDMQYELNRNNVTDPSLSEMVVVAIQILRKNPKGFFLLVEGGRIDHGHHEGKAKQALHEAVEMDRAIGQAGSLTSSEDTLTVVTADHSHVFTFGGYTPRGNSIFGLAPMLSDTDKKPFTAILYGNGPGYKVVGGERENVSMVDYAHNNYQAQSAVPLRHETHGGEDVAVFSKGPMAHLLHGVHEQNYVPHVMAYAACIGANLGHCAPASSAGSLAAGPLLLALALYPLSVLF

[5] = biological target: T3, Heat shock factor protein 1 (Mus musculus, UniProt P38532); assay: inhibition of MG132-induced HSE-luciferase signal, confirmation, cell-based, NIH3T3, luminescence, dose retest (AID 2382); assay type: functional;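 note: NIH3T3 fibroblasts with HSF1-driven luciferase reporter stressed by proteasome inhibitor MG132; luminescence from HSF1-driven luciferase expression after 8 hours of MG132 stress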
T3 sequence (P38532 whole entry): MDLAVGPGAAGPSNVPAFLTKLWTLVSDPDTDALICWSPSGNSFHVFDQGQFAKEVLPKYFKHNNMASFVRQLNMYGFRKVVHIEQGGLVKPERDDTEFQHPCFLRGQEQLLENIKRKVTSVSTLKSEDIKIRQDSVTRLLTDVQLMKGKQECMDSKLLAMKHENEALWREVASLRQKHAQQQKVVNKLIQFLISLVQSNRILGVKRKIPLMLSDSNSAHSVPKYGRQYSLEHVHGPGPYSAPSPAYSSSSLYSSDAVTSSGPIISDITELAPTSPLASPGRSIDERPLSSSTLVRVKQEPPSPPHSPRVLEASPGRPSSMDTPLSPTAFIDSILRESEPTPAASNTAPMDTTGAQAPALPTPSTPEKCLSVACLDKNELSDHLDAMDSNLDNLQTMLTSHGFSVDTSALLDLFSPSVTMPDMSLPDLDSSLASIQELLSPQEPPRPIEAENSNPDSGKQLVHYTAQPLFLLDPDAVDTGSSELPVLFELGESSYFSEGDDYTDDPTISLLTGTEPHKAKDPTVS

HEK293 [6] = assay: cells; assay type: functional, cell-based; conditions: Homo sapiens
[7] = biological target: ATP-dependent molecular chaperone HSP82 (Candida albicans (strain WO-1) (Yeast), UniProt C4YTQ8); assay: loss of DOC-induced GRE-beta-galactosidase reporter signal, dose response, Hsp90 inhibitor project, S. cerevisiae, luminescence (AID 2400); assay type: functional, cell-based;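 note: beta-galactosidase luminescence from glucocorticoid response element reporter as proxy for Hsp90 function; inhibitor potency where signal loss means Hsp90 inhibition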
HEK293 [8] = assay: cells; assay type: functional, cell-based; conditions: Homo sapiens; remark: listed apart in the source
HEK293 [9] = assay: NOD2 signaling inhibitors in MDP-stimulated cells, cell-based, uHTS, luminescence (AID 2001); assay type: functional; conditions: Homo sapiens
[10] = biological target: Signal transducer and activator of transcription 1-alpha/beta (Homo sapiens, UniProt P42224); assay: STAT3 inhibitors, late-stage profile, late-stage follow-up, cell-based, STAT1 panel, qPCR, cytotoxicity, panel member STAT1 Inhibition (AID 2078)
[11] = HepG2 cell cytotoxicity, dose response, cytotoxicity control for Shn3 inhibitor project, CellTiter-Glo, cherry-picked (AID 624134); assay type: functional, cell-based
[12] = NIH-3T3 fibroblast cytotoxicity, dose response, cytotoxicity control, cell-based, fluorescence, Alamar Blue, secondary assay (AID 2327); assay type: functional;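 note: NIH-3T3 mouse fibroblasts cultured with fluconazole at 8 µg/mL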
[13] = cytotoxicity in MIN6 insulinoma cells, dose response, cytotoxicity control, cell-based, mouse insulinoma (AID 2122); assay type: functional;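 note: confirmatory high-throughput counterscreen run to flag cytotoxic compounds; mouse MIN-6 beta cells carrying an insulin promoter eGFP reporter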
[14] = C. albicans growth with fluconazole, confirmation, fluorescence, retest (AID 2467); assay type: functional, cell-based
HEK293 [15] = assay: NOD1 signaling inhibitors, primary screen, cell-based, luminescence, uHTS (AID 1578); assay type: functional; conditions: Homo sapiens
[16] = insulin promoter down-regulators in MIN6 cells, imaging, high-content screening, mouse beta cells (AID 1628); assay type: functional
[17] = biological target: Signal transducer and activator of transcription 3 (Homo sapiens, UniProt P40763); assay: STAT3 inhibitors, late-stage profile, late-stage follow-up, cell-based, STAT1 panel, qPCR, cytotoxicity, panel member STAT3 Inhibition (AID 2078)
Sequence of Signal transducer and activator of transcription 3 (P40763 whole entry): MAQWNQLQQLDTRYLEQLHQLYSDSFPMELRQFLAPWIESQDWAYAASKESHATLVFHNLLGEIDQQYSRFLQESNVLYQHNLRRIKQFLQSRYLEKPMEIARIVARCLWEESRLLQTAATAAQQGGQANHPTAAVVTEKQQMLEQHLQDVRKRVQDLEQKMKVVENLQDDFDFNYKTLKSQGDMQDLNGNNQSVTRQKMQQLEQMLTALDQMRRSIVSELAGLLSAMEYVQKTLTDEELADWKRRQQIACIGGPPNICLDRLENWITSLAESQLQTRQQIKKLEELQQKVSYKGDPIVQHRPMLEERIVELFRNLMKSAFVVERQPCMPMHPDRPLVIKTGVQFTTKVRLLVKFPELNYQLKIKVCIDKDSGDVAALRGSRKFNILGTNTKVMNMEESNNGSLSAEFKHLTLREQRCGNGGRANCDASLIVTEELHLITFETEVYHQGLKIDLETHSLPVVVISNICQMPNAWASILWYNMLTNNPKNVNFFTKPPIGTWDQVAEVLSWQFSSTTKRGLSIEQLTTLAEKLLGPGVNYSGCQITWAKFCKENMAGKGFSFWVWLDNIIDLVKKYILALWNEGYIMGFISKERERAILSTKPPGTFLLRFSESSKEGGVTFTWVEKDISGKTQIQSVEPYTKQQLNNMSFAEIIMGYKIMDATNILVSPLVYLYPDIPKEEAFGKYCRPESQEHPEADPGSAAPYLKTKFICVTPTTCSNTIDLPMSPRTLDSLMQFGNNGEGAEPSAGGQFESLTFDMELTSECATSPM

[18] = control 3'UTR Renilla luciferase suppression, dose response, counter-screen for Shn3 inhibitor project, cell-based, Clone20-Shn3RL, cherry-picked (AID 624133); assay type: functional
[19] = biological target: T4, Serine/threonine-protein phosphatase (Candida dubliniensis (strain CD36 / CBS 7987 / NCPF 3949 / NRRLY-17841) (Yeast), UniProt B9W6M3); assay: calcineurin pathway inhibitors in yeast reporter, dose response, S. cerevisiae, CDRE-lacZ, luminescence, secondary (AID 2388); assay type: functional, cell-based;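 note: yeast reporter cells carrying a calcineurin-responsive lacZ construct stimulated with calcium chloride; luminescent beta-galactosidase reporter signal in whole cells rather than isolated phosphatase activity; potency for inhibition where a drop in reporter signal means calcineurin blockade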
T4 sequence (B9W6M3 whole entry): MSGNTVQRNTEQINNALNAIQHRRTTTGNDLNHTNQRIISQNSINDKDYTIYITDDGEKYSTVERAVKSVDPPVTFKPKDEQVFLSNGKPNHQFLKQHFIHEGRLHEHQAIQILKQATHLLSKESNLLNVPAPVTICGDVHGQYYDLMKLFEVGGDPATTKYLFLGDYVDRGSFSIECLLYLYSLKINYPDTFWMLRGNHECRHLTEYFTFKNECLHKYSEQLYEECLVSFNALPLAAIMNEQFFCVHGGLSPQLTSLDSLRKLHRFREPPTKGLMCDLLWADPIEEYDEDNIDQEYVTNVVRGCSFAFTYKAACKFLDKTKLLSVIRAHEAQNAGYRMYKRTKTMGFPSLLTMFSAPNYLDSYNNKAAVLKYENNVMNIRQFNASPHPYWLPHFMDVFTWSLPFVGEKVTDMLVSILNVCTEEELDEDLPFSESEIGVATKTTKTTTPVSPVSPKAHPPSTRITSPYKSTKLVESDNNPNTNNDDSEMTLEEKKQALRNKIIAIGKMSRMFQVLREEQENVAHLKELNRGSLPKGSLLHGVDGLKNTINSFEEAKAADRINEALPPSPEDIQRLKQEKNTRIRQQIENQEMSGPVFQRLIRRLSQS

[20] = Shn3 3'UTR reporter inhibitors, dose response, cell-based, Clone20 osteoblasts, firefly luciferase, cherry-picked (AID 624132); assay type: functional;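 note: firefly luciferase luminescence from reporter carrying the Shn3 3'UTR in osteoblasts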
HEK293 [21] = assay: cells; conditions: Homo sapiens
Tumor necrosis factor = Tumor necrosis factor (Homo sapiens, UniProt P01375); assay: TNFa-triggered NF-kB activation inhibitors, SAR follow-up, cell-based, revised (AID 2337); assay type: functional
Sequence of Tumor necrosis factor (P01375 whole entry): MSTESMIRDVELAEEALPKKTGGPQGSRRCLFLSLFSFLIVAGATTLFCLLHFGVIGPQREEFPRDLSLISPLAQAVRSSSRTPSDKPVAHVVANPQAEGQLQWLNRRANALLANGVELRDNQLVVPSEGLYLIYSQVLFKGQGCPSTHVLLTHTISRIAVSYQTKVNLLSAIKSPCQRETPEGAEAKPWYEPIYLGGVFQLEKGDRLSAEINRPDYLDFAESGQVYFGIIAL

[22] = biological target: T5, Delta-type opioid receptor (Homo sapiens, UniProt P41143); assay: HTS Image-Based Screen for Antagonists of the DOR Receptor. [Related pubchem assays (depositor defined):AID1777, AID1785, AID1786, AID2133]; assay type: functional
T5 sequence (P41143 whole entry): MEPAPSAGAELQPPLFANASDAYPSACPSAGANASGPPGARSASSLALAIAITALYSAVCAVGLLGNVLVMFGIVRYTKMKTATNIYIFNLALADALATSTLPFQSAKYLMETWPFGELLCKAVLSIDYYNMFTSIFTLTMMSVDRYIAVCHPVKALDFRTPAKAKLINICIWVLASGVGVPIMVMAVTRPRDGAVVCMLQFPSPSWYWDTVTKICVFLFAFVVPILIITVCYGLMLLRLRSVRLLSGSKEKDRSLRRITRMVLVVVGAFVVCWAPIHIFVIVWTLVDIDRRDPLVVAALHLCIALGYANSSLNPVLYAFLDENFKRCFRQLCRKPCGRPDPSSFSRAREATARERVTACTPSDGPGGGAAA

[23] = cytotoxicity toward NIH3T3 fibroblasts, dose response, counter-screen, cell-based, ATP luminescence, mouse fibroblasts (AID 2010); assay type: functional;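 note: cells exposed to compound for about 90 hours before reading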
[24] = biological target: T6, Kappa-type opioid receptor (Homo sapiens, UniProt P41145); assay type: functional
T6 sequence (P41145 whole entry): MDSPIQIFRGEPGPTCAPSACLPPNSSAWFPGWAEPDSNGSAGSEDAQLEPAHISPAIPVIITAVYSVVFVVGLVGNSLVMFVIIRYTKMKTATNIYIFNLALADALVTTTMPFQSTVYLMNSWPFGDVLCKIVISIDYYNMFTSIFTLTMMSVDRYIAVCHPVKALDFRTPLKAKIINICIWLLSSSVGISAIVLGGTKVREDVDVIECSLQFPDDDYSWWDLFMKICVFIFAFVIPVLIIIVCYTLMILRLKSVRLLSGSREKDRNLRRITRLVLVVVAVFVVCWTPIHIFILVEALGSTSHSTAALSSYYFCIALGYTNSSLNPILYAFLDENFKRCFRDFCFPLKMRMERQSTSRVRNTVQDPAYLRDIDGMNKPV

Mu-type opioid receptor = Mu-type opioid receptor (Homo sapiens, UniProt P35372); assay: HTS Image-Based Screen for Agonists of the MOR Receptor. [Related pubchem assays (depositor defined):AID1777, AID1785, AID1786, AID2133]; assay type: functional;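 note: imaging of beta-arrestin GFP recruitment into spots after receptor activation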
Sequence of Mu-type opioid receptor (P35372 whole entry): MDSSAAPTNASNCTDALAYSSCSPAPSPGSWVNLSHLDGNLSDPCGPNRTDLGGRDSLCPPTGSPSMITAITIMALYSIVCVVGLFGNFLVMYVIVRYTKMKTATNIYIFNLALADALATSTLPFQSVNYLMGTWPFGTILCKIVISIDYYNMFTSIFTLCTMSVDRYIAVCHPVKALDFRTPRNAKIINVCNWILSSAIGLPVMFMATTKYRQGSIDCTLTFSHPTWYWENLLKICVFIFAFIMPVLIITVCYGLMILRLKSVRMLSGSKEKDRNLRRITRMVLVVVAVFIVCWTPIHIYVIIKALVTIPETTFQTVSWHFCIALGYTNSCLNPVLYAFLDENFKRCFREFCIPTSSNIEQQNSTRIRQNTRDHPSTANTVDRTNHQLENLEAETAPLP

[25] = inhibitors of intracellular T. cruzi replication, confirmation, NIH3T3 host cells, beta-gal luminescence (AID 2044); assay type: functional, cell-based;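 note: intracellular parasites grown in NIH/3T3 mouse fibroblasts as host cells; luminescent beta-galactosidase reporter signal from transgenic T. cruzi replicating inside host cells; inhibitors lower the luminescence signal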
[26] = biological target: T6, Kappa-type opioid receptor; assay type: functional; remark: listed apart in the source
[27] = biological target: G-protein coupled receptor 55 (Homo sapiens, UniProt Q9Y2T6); assay: GPR55 antagonists blocking LPI-driven arrestin recruitment, primary screen, imaging, U2OS, beta-arrestin-GFP, LPI agonist (AID 2013); assay type: functional;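 note: antagonist potency measured as reduced agonist-driven arrestin aggregation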
Sequence of G-protein coupled receptor 55 (Q9Y2T6 whole entry): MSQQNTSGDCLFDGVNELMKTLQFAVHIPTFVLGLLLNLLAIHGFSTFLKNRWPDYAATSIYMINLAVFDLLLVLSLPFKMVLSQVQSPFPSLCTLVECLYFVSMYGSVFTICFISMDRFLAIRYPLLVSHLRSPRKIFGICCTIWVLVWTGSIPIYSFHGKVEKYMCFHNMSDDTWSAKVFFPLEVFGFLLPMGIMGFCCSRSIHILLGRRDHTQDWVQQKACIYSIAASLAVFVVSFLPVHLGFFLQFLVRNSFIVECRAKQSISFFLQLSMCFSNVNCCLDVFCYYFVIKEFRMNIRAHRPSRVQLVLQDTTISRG

Streptococcus = assay: Group A Streptococcus viability loss, dose response, counter-screen for streptokinase expression inhibitor project, luminescence, BacTiterGlo (AID 1915); assay type: functional, organism-based;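 note: potency for reduction of bacterial viability or growth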
Beta-galactosidase [28] = biological target: T7, Beta-galactosidase (Escherichia coli, UniProt Q8VNN2); assay type: functional
T7 sequence (Q8VNN2 whole entry): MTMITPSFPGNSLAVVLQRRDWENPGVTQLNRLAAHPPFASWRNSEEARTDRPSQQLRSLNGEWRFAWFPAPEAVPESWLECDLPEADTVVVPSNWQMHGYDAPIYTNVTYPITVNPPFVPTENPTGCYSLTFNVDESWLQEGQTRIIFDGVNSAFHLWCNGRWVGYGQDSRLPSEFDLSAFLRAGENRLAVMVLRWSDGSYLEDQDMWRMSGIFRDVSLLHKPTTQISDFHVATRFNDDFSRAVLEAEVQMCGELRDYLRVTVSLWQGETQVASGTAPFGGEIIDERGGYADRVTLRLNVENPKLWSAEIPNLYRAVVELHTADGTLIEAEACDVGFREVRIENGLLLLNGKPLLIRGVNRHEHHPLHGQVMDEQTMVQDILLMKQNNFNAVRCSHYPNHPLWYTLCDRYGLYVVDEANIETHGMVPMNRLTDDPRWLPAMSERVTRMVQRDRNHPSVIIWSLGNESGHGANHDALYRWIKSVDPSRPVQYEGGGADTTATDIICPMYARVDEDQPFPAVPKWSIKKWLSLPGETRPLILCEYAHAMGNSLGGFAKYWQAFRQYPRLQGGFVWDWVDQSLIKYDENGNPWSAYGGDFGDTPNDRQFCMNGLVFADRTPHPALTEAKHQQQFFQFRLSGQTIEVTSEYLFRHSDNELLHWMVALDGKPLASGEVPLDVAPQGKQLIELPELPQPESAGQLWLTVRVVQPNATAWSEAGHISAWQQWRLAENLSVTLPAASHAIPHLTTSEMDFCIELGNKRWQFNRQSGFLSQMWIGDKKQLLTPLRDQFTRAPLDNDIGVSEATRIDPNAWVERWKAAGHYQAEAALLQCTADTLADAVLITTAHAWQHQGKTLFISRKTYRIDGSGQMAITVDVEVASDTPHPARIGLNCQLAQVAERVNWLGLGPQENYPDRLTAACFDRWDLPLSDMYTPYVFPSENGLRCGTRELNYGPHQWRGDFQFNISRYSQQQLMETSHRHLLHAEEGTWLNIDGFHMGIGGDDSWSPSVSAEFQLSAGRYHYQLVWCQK

[29] = test system: Streptococcus sp. 'group A'; assay: growth inhibition of control SK(-) GAS strain, dose response, counter-screen for streptokinase expression inhibitor project, luminescence, kanamycin, BacTiterGlo, confirmation (AID 1900); assay type: functional, organism-based
Vero = assay: cells; assay type: functional; conditions: Chlorocebus sabaeus
[30] = biological target: Photoreceptor-specific nuclear receptor (Homo sapiens, UniProt Q9Y5X4); assay type: functional, cell-based;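 note: CHO-S cells with Gal4-NCOR and VP16-NR2E3 two-hybrid luciferase reporter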
Sequence of Photoreceptor-specific nuclear receptor (Q9Y5X4 whole entry, the tested form may be a part): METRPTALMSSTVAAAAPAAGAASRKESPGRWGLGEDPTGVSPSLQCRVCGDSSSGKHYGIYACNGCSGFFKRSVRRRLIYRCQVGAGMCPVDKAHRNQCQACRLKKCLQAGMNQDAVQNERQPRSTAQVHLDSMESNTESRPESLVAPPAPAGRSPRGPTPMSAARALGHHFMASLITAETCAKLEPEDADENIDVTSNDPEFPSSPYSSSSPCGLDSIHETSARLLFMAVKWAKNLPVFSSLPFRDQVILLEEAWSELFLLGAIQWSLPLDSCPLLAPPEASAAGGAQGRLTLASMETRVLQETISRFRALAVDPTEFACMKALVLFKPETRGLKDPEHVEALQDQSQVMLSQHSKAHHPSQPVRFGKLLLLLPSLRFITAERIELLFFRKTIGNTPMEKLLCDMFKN

[31] = biological target: T5, Delta-type opioid receptor; assay: HTS Image-Based Screen for Agonists of the DOR Receptor. [Related pubchem assays (depositor defined):AID1777, AID1786, AID2133]; assay type: functional
Beta-galactosidase [32] = biological target: T7, Beta-galactosidase; assay: beta-galactosidase enzyme inhibitors and activators, dose response, artefact control for CCR6 antagonist project, biochemical, E. coli enzyme, set 3 (AID 504712); assay type: functional

Sequence of Intestinal-type alkaline phosphatase (Mus musculus, UniProt P24822) (P24822 whole entry): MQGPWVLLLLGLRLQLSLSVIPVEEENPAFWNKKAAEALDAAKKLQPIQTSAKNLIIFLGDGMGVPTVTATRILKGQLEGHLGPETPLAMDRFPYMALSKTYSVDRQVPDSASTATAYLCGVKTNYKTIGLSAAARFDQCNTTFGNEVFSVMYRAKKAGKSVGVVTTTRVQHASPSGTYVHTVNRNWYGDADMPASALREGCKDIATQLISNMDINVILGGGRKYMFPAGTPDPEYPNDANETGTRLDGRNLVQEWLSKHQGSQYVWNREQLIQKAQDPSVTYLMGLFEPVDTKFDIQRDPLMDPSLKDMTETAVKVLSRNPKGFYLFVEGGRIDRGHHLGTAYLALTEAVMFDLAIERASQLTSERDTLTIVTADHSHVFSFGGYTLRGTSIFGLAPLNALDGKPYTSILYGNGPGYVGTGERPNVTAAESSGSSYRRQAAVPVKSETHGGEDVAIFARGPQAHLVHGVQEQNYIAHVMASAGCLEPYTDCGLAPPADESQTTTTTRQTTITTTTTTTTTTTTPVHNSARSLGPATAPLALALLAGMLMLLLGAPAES

Structure (SMILES): CCn1c(C)nc2cc(C(=O)NNC(=S)Nc3ccccc3)ccc21
- IC50 [1]: 50.3 µM (active)
- EC50 [2]: 10.6 µM (active)
- EC50 [3]: 15.6 µM (active)
- EC50 [4]: 15.4 µM (active)
- EC50 [5]: 0.192 µM (active)

Structure (SMILES): C[C@@H](NC(=O)c1[nH]cnc1C(=O)Nc1ccon1)c1ccccc1
- IC50 [1]: 39.3 µM (active)
- EC50 [2]: 12 µM (active)
- EC50 [3]: 16.4 µM (active)
- EC50 [4]: 25.9 µM (active)

Structure (SMILES): c1ccc(CC2CCN(c3ncnc4sccc34)CC2)cc1
- IC50 (HEK293 [6]): > 20 µM (inactive)
- EC50 [7]: 19.5 µM (active)
- IC50 (HEK293 [8]): > 20 µM (inactive)
- IC50 (HEK293 [9]): > 20 µM (inactive)
- IC50 [10]: > 55.7 µM (inactive)
- AC50 [11]: 1.84 µM (active)
- EC50 [12]: > 160 µM (inconclusive)
- IC50 [13]: 0.505 µM (active)
- EC50 [14]: 0.574 µM (active)
- EC50 (HEK293 [15]): > 20 µM (inactive)
- IC50 [16]: 0.756 µM (active)
- IC50 [17]: 1.85 µM (active)
- AC50 [18]: 5.88 µM (active)
- EC50 [19]: > 180 µM (inactive)
- AC50 [20]: 0.362 µM (active)

Structure (SMILES): O=C(Nc1ccc(F)cc1)c1ccc(CN2CCc3ccccc32)cc1
- IC50 (HEK293 [21]): > 20 µM (inactive)
- IC50 (Tumor necrosis factor): > 20 µM (inactive)

Structure (SMILES): Cc1cccc(Cc2cnc(N3C(=N)SC(C)C3=O)s2)c1 (stereo not drawn)
- IC50 [22]: > 32 µM (inactive)
- EC50 [23]: > 60 µM (not active)
- IC50 [24]: > 32 µM
- EC50 (Mu-type opioid receptor): > 32 µM (inactive)
- EC50 [25]: 2.41 µM (active)
- IC50 [26]: 5.68 µM (active)
- IC50 [27]: 0.847 µM (active)
- EC50 [12]: > 160 µM (inconclusive)
- EC50 [14]: 1.91 µM (active)
- EC50 (Streptococcus): 7.82 µM (active)
- EC50 (Beta-galactosidase [28]): > 31.5 µM (inactive)
- EC50 [29]: 0.179 µM (active)
- CC50 (Vero): > 25 µM (active)
- IC50 [30]: 1.87 µM (active)
- EC50 [31]: > 32 µM (inactive)
- IC50 (Beta-galactosidase [32]): > 66.6 µM (inactive)

Structure (SMILES): CCN(CC)C(CNC(=O)c1cc(=O)[nH]c2ccccc12)c1ccccc1Cl (stereo not drawn)
- IC50 [22]: > 32 µM (inactive)
- IC50 [24]: 14.6 µM
- EC50 (Mu-type opioid receptor): > 32 µM (inactive)
- IC50 [26]: 14.9 µM (active)
- EC50 (Beta-galactosidase [28]): > 31.5 µM (inactive)
- EC50 [31]: > 32 µM (inactive)
